Data reported in US3988364A, “Novel N,N-di-substituted amidines and several acid-addition salts thereof” (Toyo Jozo Kabushiki Kaisha, priority 1972, dated 1976).
Counter-ions that a name gives are not always drawn. Like-named read-outs stand apart in the source and are kept apart here.

How the values were obtained:
[1] = system: dogs; experiment: Antitussive activity (50%-antitussive effective dose AtD50; efficiency ratio relative to codeine phosphate); format: in vivo; details: for Antitussive Ratio: efficiency ratio relative to codeine phosphate; for ED50: Canis lupus familiaris, read-out: AtD50 (50%-antitussive effective dose)
Description: route of administration:
From the efficiency rate obtained upon each administration step, 50%-antitussive effective dose (AtD50) was calculated according to the Litchfield-Wilcoxon method. Further, efficiency ratio relative to codeine phosphate was also determined.

[2] = in vivo; format: in vivo; details: mouse, in vivo, sc, male ddy mice, subcutaneous injection, Litchfield-Wilcoxon
Description: (§1) test animals: more than five groups, each group
consisting of five male mice of ddy-

[3] = system: male mice of ddy-strain; experiment: in vivo; format: in vivo; details: subcutaneous injection, 72 hours, Litchfield-Wilcoxon
Description: as §1
consisting of five male mice of ddy-

[4] = system: persons; details: in words; inhibits long continuous administration; cited from earlier work
[5] = intravenous injection, Litchfield-Wilcoxon method
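Throughout, for LD50: animals allocated into more than five groups, with five mice per group.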

Row | Compound | Antitussive Ratio ([1]; intravenous injection) | LD50 at 72 h [2] | ED50 [1, 5] | other results
1 | Cc1ccccc1NC(=NC1CCCCC1)c1ccccc1 [Compound 1, hydrochloric acid salt of N-cyclohexyl, N'-o-tolyl-benzamidine] | 1.73 | 242 mg/kg | – | –
2 | Cc1ccc(NC(=NC2CCCCC2)c2ccccc2)cc1 [Compound 2, hydrochloric acid salt of N-cyclohexyl, N'-p-tolyl-benzamidine] | 0.58 | 186 mg/kg | – | –
3 | CCc1ccc(N=C(NC2CCCCC2)c2ccccc2)cc1.Cl [Compound 3, N-cyclohexyl, N'-p-ethylphenyl-benzamidine hydrochloride] | 0.95 | 218 mg/kg | – | –
4 | Cc1cccc(NC(=NC2CCCCC2)c2ccccc2)c1C [Compound 4, hydrochloric acid salt of N-cyclohexyl, N'-2,3-xylyl-benzamidine] | 1.21 | 117 mg/kg | – | –
5 | COc1ccccc1N=C(NC1CCCCC1)c1ccccc1.Cl [Compound 5, N-cyclohexyl, N'-o-methoxyphenyl-benzamidine hydrochloride] | 0.44 | 268 mg/kg | – | –
6 | COc1cccc(N=C(NC2CCCCC2)c2ccccc2)c1.Cl [Compound 6, N-cyclohexyl, N'-m-methoxyphenyl-benzamidine hydrochloride] | 1.20 | 78 mg/kg | – | –
7 | c1ccc(C(=NC2CCCCC2)Nc2cccc3ccccc23)cc1 [Compound 7, N-cyclohexyl, N'-α-naphtyl-benzamidine hydrochloride] | 0.79 | > 800 mg/kg | – | –
8 | Cc1cccc(C(=NC2CCCCC2)Nc2ccccc2)c1 [Compound 8, hydrochloric acid salt of N-cyclohexyl, N'-phenyl-m-toluamidine] | 1.20 | 276 mg/kg | – | –
9 | Cc1cccc(NC(=NC2CCCCC2)c2cccc(C)c2)c1 [Compound 9, hydrochloric acid salt of N-cyclohexyl, N'-m-tolyl-m-toluamidine] | 1.20 | 445 mg/kg | – | –
10 | Cc1ccc(C(=NC2CCCCC2)Nc2ccccc2)cc1 [Compound 10, hydrochloric acid salt of N-cyclohexyl, N'-phenyl-p-toluamidine] | 0.83 | 186 mg/kg | – | –
11 | Cl.c1ccc(N(CCN2CCCCC2)Cc2ccccn2)cc1 [Compound 11, picoperidamine hydrochloride, reference compound] | 0.95 | – | – | LD50 [3]: 144 mg/kg
12 | Cl.Clc1ccc(C(OCCN2CCCCC2)c2ccccc2)cc1 (stereo not drawn) [Compound 13, Hustazol, reference compound] | 0.52 | – | – | LD50 [3]: 375 mg/kg
13 | COc1ccc2c(c1)[C@]13CCCC[C@@H]1[C@H](C2)N(C)CC3 [Compound 15, dextrometrofan hydrobromide, reference compound] | 0.15 | 153 mg/kg | – | –
14 | COc1ccc2c(c1OC)C(=O)O[C@@H]2[C@H]1c2c(cc3c(c2OC)OCO3)CCN1C [Compound 16, noscapine hydrochloride, reference compound] | 0.24 | 240 mg/kg | – | –
15 | COc1ccc2c3c1O[C@H]1[C@@H](O)C=C[C@H]4[C@@H](C2)N(C)CC[C@@]341 [Compound 17, codeine phosphate, reference compound] | 1.00 | – | 2.2 mg/kg | habituation [4]: appreciable habituation; LD50 [3]: 190 mg/kg
16 | Cc1ccccc1C(=NC1CCCCC1)Nc1ccccc1 [Compound 18, N-cyclohexyl, N'-phenol-o-toluamidine hydrochloride] | – | 740 mg/kg | – | ED50 ([1]; iv): 5.15 mg/kg
17 | Cc1ccccc1N=C(NC1CCCCC1)c1ccccc1C.Cl [Compound 19, N-cyclohexyl, N'-o-tolyl-o-toluamidine hydrochloride] | – | 650 mg/kg | 5.15 mg/kg | –
18 | Cc1cccc(N=C(NC2CCCCC2)c2ccccc2C)c1.Cl [Compound 20, N-cyclohexyl, N'-m-tolyl-o-toluamidine hydrochloride] | – | > 100 mg/kg | – | ED50 ([1]; iv): 4.29 mg/kg
19 | Cc1ccc(N=C(NC2CCCCC2)c2ccccc2C)cc1.Cl [Compound 21, N-cyclohexyl, N'-p-tolyl-o-toluamidine hydrochloride] | – | 160 mg/kg | 3.58 mg/kg | –
20 | Cc1ccccc1C(=NC1CCCCC1)Nc1cccc(C)c1C [Compound 22, N-cyclohexyl, N'-2,3,-xylyl-o-toluamidine hydrochloride] | – | > 1000 mg/kg | 3.58 mg/kg | –
21 | COc1ccccc1N=C(NC1CCCCC1)c1cccc(C)c1.Cl [Compound 23, N-cyclohexyl, N'-o-methoxyphenyl-m-toluamidine hydrochloride] | – | 100 mg/kg | – | ED50 ([1]; iv): 4.29 mg/kg
22 | COc1cccc(N=C(NC2CCCCC2)c2ccccc2C)c1.O=C(O)C(=O)O [Compound 24, N-cyclohexyl, N'-m-methoxyphenyl-o-toluamidine oxalate] | – | 891 mg/kg | 5.15 mg/kg | –

Row | Compound | Antitussive Ratio ([1]; intravenous injection) | LD50 at 72 h [2] | ED50 [1, 5] | other results
23 | Cc1ccc(N=C(NC2CCCCC2)c2cccc(C)c2)cc1.Cl [Compound 25, N-cyclohexyl, N'-p-tolyl-m-toluamidine hydrochloride] | – | 900 mg/kg | 4.29 mg/kg | –
24 | Cc1cccc(C(=Nc2ccccc2C)NC2CCCCC2)c1.Cl [Compound 26, N-cyclohexyl, N'-o-tolyl-m-toluamidine hydrochloride] | – | 740 mg/kg | 2.98 mg/kg | –
25 | CCc1ccccc1N=C(NC1CCCCC1)c1cccc(C)c1.Cl [Compound 27, N-cyclohexyl, N'-o-ethylphenyl-m-toluamidine hydrochloride] | – | > 1000 mg/kg | 5.15 mg/kg | –
26 | COc1cccc(N=C(NC2CCCCC2)c2cccc(C)c2)c1.O=C(O)C(=O)O [Compound 28, N-cyclohexyl, N'-m-methoxyphenyl-m-toluamidine oxalate] | – | 743 mg/kg | 5.15 mg/kg | –
27 | Cc1ccc(C(=Nc2ccccc2C)NC2CCCCC2)cc1.Cl [Compound 29, N-cyclohexyl, N'-o-tolyl-p-toluamidine hydrochloride] | – | 620 mg/kg | 2.48 mg/kg | –
28 | CCc1ccccc1N=C(NC1CCCCC1)c1ccc(C)cc1.Cl [Compound 30, N-cyclohexyl, N'-o-ethylphenyl-p-toluamidine hydrochloride] | – | > 1000 mg/kg | 4.29 mg/kg | –
29 | Cc1ccc(C(=NC2CCCCC2)Nc2cccc(C)c2C)cc1 [Compound 31, N-cyclohexyl, N'-2,3,-xylyl-p-toluamidine hydrochloride] | – | > 1000 mg/kg | 2.07 mg/kg | –
30 | Cc1ccc(C(=Nc2cccc(C)c2)NC2CCCCC2)cc1.Cl [Compound 32, N-cyclohexyl, N'-m-tolyl-p-toluamidine hydrochloride] | – | 460 mg/kg | 2.48 mg/kg | –
31 | COc1cccc(N=C(NC2CCCCC2)c2ccc(C)cc2)c1.Cl [Compound 33, N-cyclohexyl, N'-m-methoxyphenyl-p-toluamidine hydrochloride] | – | 600 mg/kg | 5.15 mg/kg | –
32 | COc1ccccc1C(=Nc1ccccc1)NC1CCCCC1.Cl [Compound 34, N-cyclohexyl, N'-phenyl-o-methoxy-benzamidine hydrochloride] | – | 100 mg/kg | 3.58 mg/kg | –
33 | COc1ccccc1C(=Nc1cccc(C)c1)NC1CCCCC1.Cl [Compound 35, N-cyclohexyl, N'-m-tolyl-o-methoxy-benzamidine hydrochloride] | – | 144 mg/kg | 5.15 mg/kg | –
34 | COc1ccccc1C(=Nc1ccccc1C)NC1CCCCC1.Cl [Compound 36, N-cyclohexyl, N'-o-tolyl-o-methoxy-benzamidine hydrochloride] | – | 100 mg/kg | 4.29 mg/kg | –
35 | COc1cccc(N=C(NC2CCCCC2)c2ccccc2OC)c1.Cl [Compound 37, N-cyclohexyl, N'-m-methoxyphenyl-o-methoxybenzamidine hydrochloride] | – | 207 mg/kg | 2.98 mg/kg | –
36 | COc1ccc(C(=Nc2ccccc2)NC2CCCCC2)cc1.Cl [Compound 38, N-cyclohexyl, N'-phenyl-p-anisamidine hydrochloride] | – | 120 mg/kg | 2.98 mg/kg | –
37 | COc1ccc(C(=Nc2ccccc2C)NC2CCCCC2)cc1.Cl [Compound 39, N-cyclohexyl, N'-o-tolyl-p-anisamidine hydrochloride] | – | 172 mg/kg | 3.58 mg/kg | –
38 | COc1ccc(C(=Nc2cccc(C)c2)NC2CCCCC2)cc1.Cl [Compound 40, N-cyclohexyl, N'-m-tolyl-p-anisamidine hydrochloride] | – | 298 mg/kg | 2.48 mg/kg | –
39 | COc1ccc(C(=Nc2cccc(OC)c2)NC2CCCCC2)cc1.Cl [Compound 41, N-cyclohexyl, N'-m-methoxyphenyl-p-anisamidine hydrochloride] | – | 248 mg/kg | 2.98 mg/kg | –
40 | CCc1ccccc1N=C(NC1CCCCC1)c1ccccc1.Cl [Compound 42, N-cyclohexyl, N'-o-ethylphenyl-benzamidine hydrochloride] | – | > 1000 mg/kg | 4.29 mg/kg | –
41 | Cc1cc(C)cc(N=C(NC2CCCCC2)c2ccccc2)c1.Cl [Compound 43, N-cyclohexyl, N'-3,5-xylyl-benzamidine hydrochloride] | – | 660 mg/kg | 3.58 mg/kg | –
42 | CCc1cccc(N=C(NC2CCCCC2)c2ccccc2)c1.Cl [Compound 44, N-cyclohexyl, N'-m-ethylphenyl-benzamidine hydrochloride] | – | 900 mg/kg | 4.29 mg/kg | –
43 | Cc1cccc(C)c1N=C(NC1CCCCC1)c1ccccc1.Cl [Compound 45, N-cyclohexyl, N'-2,6-xylyl-benzamidine hydrochloride] | – | 248 mg/kg | 4.29 mg/kg | –
44 | Cc1cc(C)c(NC(=NC2CCCCC2)c2ccccc2)c(C)c1 [Compound 46, N-cyclohexyl, N'-2,4,6-trimethyl-phenyl-benzamidine hydrochloride] | – | 120 mg/kg | 5.15 mg/kg | –
